{
  "source": "paper PMC9841531",
  "about": "“Indole Derivatives as New Structural Class of Potent and Antiproliferative Inhibitors of Monocarboxylate Transporter 1 (MCT1; SLC16A1)” (Journal of Medicinal Chemistry, 2022)",
  "key": {"[1]": {"test_system": "ABCB1-expressing A2780/ADR cells", "assay": "MTT-based efficacy (MDR-reversal) assay, 33 in combination with test compound, A2780/ADR", "type": "cell-based", "conditions": "A2780 ADR; 33 alone, 72 h; read-out: A2780/ADR cell toxicity 33 + 0.0 μM cmpd. GI50 ± SEM", "experimental": "(§1) This sensitization is indicated by a shift of the concentration-effect curve of compound 33 from the right (=high concentrations of 33 needed to induce A2780/ADR cell death) to the left (=lower concentrations of 33 needed to induce A2780/ADR cell death). The concentration-effect curve of compound 33 in combination with 5 μM of either compound 24 or 30 resembles the concentration-effect curve of the sensitive cell line A2780. […] Thus, their potentiating effect with respect to the antiproliferative agent 33 against ABCB1-expressing A2780/ADR cells is due to the inhibition of ABCB1. Therefore, compounds 24 and 30 were dually effective against MCT1- and ABCB1-expressing cells (Table 5).\n(§2) An MDR-reversal assay[2],[55]−[59] was used to investigate the ability to reverse ABCB1-mediated MDR in A2780/ADR cells toward the cytotoxic ABCB1 substrate 33. […] A dilution series of 33 at concentrations between 0.1 μM and 100 μM was generated, and 20 μL of each concentration was transferred onto the plates (final concentration: 0.01–10 μM). The plates were incubated for 72 h at 37 °C and a 5% CO2-humidified atmosphere, before subsequent processing with the regular MTT assay as described above. The observed effects of compounds 24 and 30 were compared to the effect of 33 alone on A2780/ADR cells as well as its sensitive counterpart A2780 (∼10,000 cells/well)."}, "A2780 cells": {"test_system": "A2780 cells", "assay": "MTT-based cell toxicity of 33 on sensitive A2780 cells", "conditions": "Homo sapiens, 33 alone, 72 h, read-out: A2780 cell toxicity 33 + 0.0 μM cmpd. GI50 ± SEM", "experimental": "as §1, §2"}, "A-549 cells": {"test_system": "A-549 cells", "assay": "cell cycle distribution analysis, PI flow cytometry", "type": "cell-based", "conditions": "5 μM, 24 h", "experimental": "The antineoplastic agent 33 (5 μM) was used as a reference. […] Compound 24 caused a disruption of the cell cycle of A-549 cancer cells, indicated by a shift from the predominant G0/G1 phase (Figure 8A) to the apoptotic sub-G1 phase as well as the G2/M phase (Figure 8B). A similar G2/M arrest could be observed for reference compound 33 (Figure 8C); however, MCT1 inhibitor 24 led to a larger fraction of cells into the sub-G1 phase, indicating induced apoptosis. This experiment discovered that compound 24 inhibits cell proliferation, causing cell cycle arrest and, eventually, apoptosis. To confirm our findings, we conducted an apoptosis assay using compound 24.\nA standard PI staining procedure was used as described earlier[44]−[46] to determine the effect of compounds 24 and 33 on cell cycle progression, followed by flow cytometry analysis (FACS Aria SORP and FACS Aria Fusion, BD Biosciences, Franklin Lakes, NJ). In brief, A-549 cells were seeded onto a 6-well plate (250,000 cells/well) and incubated for 24 h at 37 °C under a 5% CO2-humidified atmosphere before being observed under a microscope. The cells were treated with compound 24 (5 μM) or 33 (5 μM) and further incubated for 24 h at 37 °C under a 5% CO2-humidified atmosphere. Then, the cells were harvested and washed twice with cold PBS (Genetix Biotech Asia, New Delhi, India) before being fixed overnight in ice-cold 70% (v/v) ethanol at 4 °C. The cells were again washed two times with PBS and subsequently resuspended with RNase (100 μg/mL; HiMedia, Mumbai, India) and their DNA was stained with PI (40 μg/mL; Sigma-Aldrich, Mumbai, India) before being incubated in the dark for 10 min. The DNA content was measured at the Indian Institute of Technology Bombay (IITB, Mumbai, India) by applying flow cytometry."}, "[2]": {"test_system": "MCT1-expressing A-549 cells", "assay": "MTT-based efficacy assay, 33 in combination with test compound, A-549", "type": "cell-based", "conditions": "Homo sapiens, A549; 33 alone, 72 h; read-out: A-549 cell toxicity 33 + 0 nM test cmpd. GI50 ± SEM", "experimental": "MCT1 inhibition anticipates challenging cancer cell energy supply and, thus, increases the efficacy of anticancer agents.\nFor this purpose, 10 μL of compounds 24 or 30 (50 nM, 100 nM, or 500 nM) was transferred onto a colorless flat-bottom 96-well microplate and complemented with 180 μL of a cell suspension containing either approximately 5,000 A-549 cells. A dilution series of compound 33 at concentrations between 50 nM and 50 μM was generated, and 10 μL of each concentration was transferred onto the plate. The observed effects of compounds 24 and 30 were compared to the effect of compound 33 alone on A-549. The plates were incubated for 72 h at 37 °C and a 5% CO2-humidified atmosphere, before subsequent processing with the regular MTT assay as described above.[43]"}},
  "data": [
    {"smiles": "COc1cccc2c1C(=O)c1c(O)c3c(c(O)c1C2=O)C[C@@](O)(C(=O)CO)C[C@@H]3O[C@H]1C[C@H](N)[C@H](O)[C@H](C)O1", "note": "[Compound 33, doxorubicin, reference compound]", "values": [
      {"measurement": "GI50", "setting": "[1]", "value": "802 ± 81", "unit": "nM"},
      {"measurement": "GI50", "setting": "A2780 cells", "value": "19.4 ± 1.7", "unit": "nM"},
      {"measurement": "cells in G0/G1 phase", "setting": "A-549 cells", "value": 41.1, "unit": "%"},
      {"measurement": "cells in G2/M phase", "setting": "A-549 cells", "value": 26.2, "unit": "%"},
      {"measurement": "cells in S phase", "setting": "A-549 cells", "value": 27.4, "unit": "%"},
      {"measurement": "cells in Sub-G1 phase", "setting": "A-549 cells", "value": 4.00, "unit": "%"},
      {"measurement": "GI50", "setting": "[2]", "value": "47.6 ± 0.7", "unit": "nM"}
    ]}
  ]
}
